Source: patent US20260159511A1, “SMALL MOLECULE STING ANTAGONISTS” (CURADEV PHARMA PVT. LTD., priority 2021, published 2026)

system: IRF pathway in THP1-Dual™ cells, THP-1 (HAQ); assay: Reporter gene expression assay in THP-1 cells (THP1-Dual, IRF pathway Lucia luciferase reporter, 2′,3′-cGAMP stimulation); format: cell-based, human; conditions: Homo sapiens; THP1-Dual cells preincubated with compound 10 minutes, stimulation with 5 μM 2′,3′-cGAMP for 20 hr, QUANTI-Luc readout of the supernatant; read-out: THP-1 (HAQ) Activity (IC50 value range)
Experimental: Reporter Gene Expression Assay in THP-1 Cells
THP1-Dual™ cells (Invivogen) were derived from the human THP-1 monocyte cell line by stable integration of two inducible reporter constructs. As a result, THP1-Dual™ cells allow the simultaneous study of the IRF pathway, by assessing the activity of a secreted luciferase (Lucia) and the NF-κB pathway, by monitoring the activity of secreted SEAP. 5×10^4 THP1-Dual™ cells were seeded in 384-well plates in growth medium and preincubated with novel compounds for 10 minutes followed by stimulation with 5 μM 2′,3′-cGAMP. After 20 hr of stimulation the supernatant was removed and the IRF pathway reporter protein was readily measured in the cell culture supernatant using QUANTI-Luc™ (Invivogen), a luciferase detection reagent on a Spectramax i3X luminometer.

Row | Structure (SMILES) | IC50 [µM]
1 | O=C(Nc1ccc2c(c1)N(Cc1c(F)cccc1Cl)C(=O)CS2)Nc1c[nH]c2ccc(Cl)cc12 [Example 28, 1-(5-chloro-1H-indol-3-yl)-3-(4-(2-chloro-6-fluorobenzyl)-3-oxo-3,4-dihydro-2H-benzo[b][1,4]thiazin-6-yl)urea] | 1 to 10
2 | O=C(Nc1ccc2c(c1)SCC(=O)N2Cc1c(F)cccc1Cl)Nc1c[nH]c2ccccc12 [Example 12, 1-(4-(2-chloro-6-fluorobenzyl)-3-oxo-3,4-dihydro-2H-benzo[b][1,4]thiazin-7-yl)-3-(1H-indol-3-yl)urea] | < 1
3 | O=C(Nc1ccc2c(c1)N(Cc1ccccc1)C(=O)CS2)Nc1c[nH]c2ccncc12 [Example 14, 1-(4-benzyl-3-oxo-3,4-dihydro-2H-benzo[b][1,4]thiazin-6-yl)-3-(1H-pyrrolo[3,2-c]pyridin-3-yl)urea] | 1 to 10
4 | O=C(Nc1ccc2c(c1)SCCN2Cc1c(F)cccc1Cl)Nc1c[nH]c2ccccc12 [Example 77, 1-(4-(2-chloro-6-fluorobenzyl)-3,4-dihydro-2H-benzo[b][1,4]thiazin-7-yl)-3-(1H-indol-3-yl)urea] | < 1
5 | O=C(Nc1ccc2c(c1)N(Cc1ccccc1)C(=O)CS2)Nc1c[nH]c2ccc(-c3ccc(O)nc3)cc12 [Example 63, 1-(4-benzyl-3-oxo-3,4-dihydro-2H-benzo[b][1,4]thiazin-6-yl)-3-(5-(6-hydroxypyridin-3-yl)-1H-indol-3-yl)urea] | 1 to 10
6 | CC1CN(Cc2ccccc2)c2ccc(NC(=O)Nc3c[nH]c4ccccc34)cc2S1 (stereo not drawn) [Example 85, 1-(4-benzyl-2-methyl-3,4-dihydro-2H-benzo[b][1,4]thiazin-7-yl)-3-(1H-indol-3-yl)urea] | < 1
7 | Cc1nc(N2CCSc3ccc(NC(=O)Nc4c[nH]c5ccccc45)cc32)ccc1F [Example 102, 1-(4-(5-Fluoro-6-methylpyridin-2-yl)-3,4-dihydro-2H-benzo[b][1,4]thiazin-6-yl)-3-(1H-indol-3-yl)urea] | < 1
8 | O=C(Nc1ccc2c(c1)N(Cc1ccccc1)C(=O)CS2)Nc1c[nH]c2ccc(-c3cnsc3)cc12 [Example 42, 1-(4-benzyl-3-oxo-3,4-dihydro-2H-benzo[b][1,4]thiazin-6-yl)-3-(5-(isothiazol-4-yl)-1H-indol-3-yl)urea] | < 1
9 | O=C(Nc1ccc2c(c1)N(c1ccccn1)CCS2)Nc1c[nH]c2ccccc12 [Example 105, 1-(1H-indol-3-yl)-3-(4-(pyridin-2-yl)-3,4-dihydro-2H-benzo[b][1,4]thiazin-6-yl)urea] | < 1
10 | NC(=O)c1ccccc1CN1C(=O)CSc2ccc(NC(=O)Nc3c[nH]c4ccccc34)cc21 [Example 22, 2-((6-(3-(1H-indol-3-yl)ureido)-3-oxo-2,3-dihydro-4H-benzo[b][1,4]thiazin-4-yl)methyl)benzamide] | 1 to 10
11 | O=C(Nc1ccc2c(c1)N(Cc1ccccc1)C(=O)CS2)Nc1c[nH]c2ccc(-c3cnn(CCO)c3)cc12 [Example 46, 1-(4-benzyl-3-oxo-3,4-dihydro-2H-benzo[b][1,4]thiazin-6-yl)-3-(5-(1-(2-hydroxyethyl)-1H-pyrazol-4-yl)-1H-indol-3-yl)urea] | 1 to 10
12 | CCn1cc(-c2ccc3[nH]cc(NC(=O)Nc4ccc5c(c4)N(Cc4ccccc4)C(=O)CS5)c3c2)cn1 [Example 47, 1-(4-benzyl-3-oxo-3,4-dihydro-2H-benzo[b][1,4]thiazin-6-yl)-3-(5-(1-ethyl-1H-pyrazol-4-yl)-1H-indol-3-yl)urea] | < 1
13 | NC(=O)c1ccc(CN2C(=O)CSc3ccc(NC(=O)Nc4c[nH]c5ccccc45)cc32)cc1 [Example 23, 4-((6-(3-(1H-indol-3-yl)ureido)-3-oxo-2,3-dihydro-4H-benzo[b][1,4]thiazin-4-yl)methyl)benzamide] | 1 to 10
14 | CC1Sc2ccc(NC(=O)Nc3c[nH]c4ccccc34)cc2N(Cc2ccccc2)C1=O (stereo not drawn) [Example 29, 1-(4-benzyl-2-methyl-3-oxo-3,4-dihydro-2H-benzo[b][1,4]thiazin-6-yl)-3-(1H-indol-3-yl)urea] | < 1
15 | O=C(Nc1ccc2c(c1)N(Cc1ccccc1)C(=O)CS2)Nc1c[nH]c2ccc(F)cc12 [Example 1, 1-(4-benzyl-3-oxo-3,4-dihydro-2H-benzo[b][1,4]thiazin-6-yl)-3-(5-fluoro-1H-indol-3-yl)urea] | < 1
16 | N#Cc1ccc2[nH]cc(NC(=O)Nc3ccc4c(c3)N(Cc3ccccc3)C(=O)CS4)c2c1 [Example 37, 1-(4-benzyl-3-oxo-3,4-dihydro-2H-benzo[b][1,4]thiazin-6-yl)-3-(5-cyano-1H-indol-3-yl)urea] | < 1
17 | O=C(Nc1ccc2c(c1)SCCN2Cc1c(F)cccc1F)Nc1c[nH]c2ccccc12 [Example 81, 1-(4-(2,6-difluorobenzyl)-3,4-dihydro-2H-benzo[b][1,4]thiazin-7-yl)-3-(1H-indol-3-yl)urea] | < 1

Row | Structure (SMILES) | IC50 [µM]
18 | O=C(Nc1ccc2c(c1)N(Cc1cc(F)cc(F)c1)CCO2)Nc1c[nH]c2ccccc12 [Example 90, 1-(4-(3,5-difluorobenzyl)-3,4-dihydro-2H-benzo[b][1,4]oxazin-6-yl)-3-(1H-indol-3-yl)urea] | < 1
19 | O=C(Nc1ccc2c(c1)N(c1cccc(F)n1)CCS2)Nc1c[nH]c2ccccc12 [Example 106, 1-(4-(6-fluoropyridin-2-yl)-3,4-dihydro-2H-benzo[b][1,4]thiazin-6-yl)-3-(1H-indol-3-yl)urea] | < 1
20 | O=C(Nc1ccc2c(c1)N(Cc1c(F)cccc1Cl)C(=O)CO2)Nc1c[nH]c2ccccc12 [Example 8, 1-(4-(2-chloro-6-fluorobenzyl)-3-oxo-3,4-dihydro-2H-benzo[b][1,4]oxazin-6-yl)-3-(1H-indol-3-yl)urea] | < 1
21 | NC(=O)c1cccc(-c2ccc3[nH]cc(NC(=O)Nc4ccc5c(c4)N(Cc4ccccc4)C(=O)CS5)c3c2)c1 [Example 48, 3-(3-(3-(4-benzyl-3-oxo-3,4-dihydro-2H-benzo[b][1,4]thiazin-6-yl)ureido)-1H-indol-5-yl)benzamide] | 1 to 10
22 | O=C(Nc1ccc2c(c1)SCC(=O)N2Cc1ccccc1)Nc1c[nH]c2ccccc12 [Example 7, 1-(4-benzyl-3-oxo-3,4-dihydro-2H-benzo[b][1,4]thiazin-7-yl)-3-(1H-indol-3-yl)urea] | < 1
23 | O=C(Nc1ccc2c(c1)N(Cc1ccccc1)C(=O)CS2)Nc1c[nH]c2ccc(-c3cccc(OC(F)(F)F)c3)cc12 [Example 58, 1-(4-benzyl-3-oxo-3,4-dihydro-2H-benzo[b][1,4]thiazin-6-yl)-3-(5-(3-(trifluoromethoxy)phenyl)-1H-indol-3-yl)urea] | < 1
24 | CC1Sc2ccc(NC(=O)Nc3c[nH]c4ccc(F)cc34)cc2N(Cc2cc(F)cc(F)c2)C1=O (stereo not drawn) [Example 31, 1-(4-(3,5-difluorobenzyl)-2-methyl-3-oxo-3,4-dihydro-2H-benzo[b][1,4]thiazin-6-yl)-3-(5-fluoro-1H-indol-3-yl)urea] | < 1
25 | COc1ccc(F)c(CN2C(=O)CSc3ccc(NC(=O)Nc4c[nH]c5ccccc45)cc32)c1Cl [Example 25, 1-(4-(2-chloro-6-fluoro-3-methoxybenzyl)-3-oxo-3,4-dihydro-2H-benzo[b][1,4]thiazin-6-yl)-3-(1H-indol-3-yl)urea] | < 1
26 | O=C(Nc1ccc2c(c1)N(Cc1cc(F)cc(F)c1)CCO2)Nc1c[nH]c2ccc(F)cc12 [Example 91, 1-(4-(3,5-difluorobenzyl)-3,4-dihydro-2H-benzo[b][1,4]oxazin-6-yl)-3-(5-fluoro-1H-indol-3-yl)urea] | < 1
27 | O=C(Nc1ccc2c(c1)N(Cc1ccccc1)C(=O)CS2)Nc1c[nH]c2ccc(-c3cnn(CC4CC4)c3)cc12 [Example 60, 1-(4-benzyl-3-oxo-3,4-dihydro-2H-benzo[b][1,4]thiazin-6-yl)-3-(5-(1-(cyclopropylmethyl)-1H-pyrazol-4-yl)-1H-indol-3-yl)urea] | < 1
28 | O=C(Nc1ccc2c(c1)N(Cc1c(F)cccc1Cl)CCS2)Nc1c[nH]c2ccccc12 [Example 75, 1-(4-(2-chloro-6-fluorobenzyl)-3,4-dihydro-2H-benzo[b][1,4]thiazin-6-yl)-3-(1H-indol-3-yl)urea] | < 1
29 | CC1Sc2cc(NC(=O)Nc3c[nH]c4ccccc34)ccc2N(Cc2ccccc2)C1=O (stereo not drawn) [Example 30, 1-(4-benzyl-2-methyl-3-oxo-3,4-dihydro-2H-benzo[b][1,4]thiazin-7-yl)-3-(1H-indol-3-yl)urea] | < 1
30 | O=C(Nc1ccc2c(c1)OCC(=O)N2Cc1ccccc1)Nc1c[nH]c2ccccc12 [Example 3, 1-(4-benzyl-3-oxo-3,4-dihydro-2H-benzo[b][1,4]oxazin-7-yl)-3-(1H-indol-3-yl)urea] | < 1
31 | O=C(Nc1ccc2c(c1)N(Cc1ccccc1)C(=O)CS2)Nc1c[nH]c2ncc(Cl)cc12 [Example 5, 1-(4-benzyl-3-oxo-3,4-dihydro-2H-benzo[b][1,4]thiazin-6-yl)-3-(5-chloro-1H-pyrrolo[2,3-b]pyridin-3-yl)urea] | < 1
32 | O=C(Nc1ccc2c(c1)N(Cc1ccccc1)C(=O)CS2)Nc1c[nH]c2ccc(-c3ccc4c(c3)OCO4)cc12 [Example 65, 1-(5-(benzo[d][1,3]dioxol-5-yl)-1H-indol-3-yl)-3-(4-benzyl-3-oxo-3,4-dihydro-2H-benzo[b][1,4]thiazin-6-yl)urea] | < 1
33 | O=C(Nc1ccc2c(c1)SCCN2Cc1cc(F)cc(F)c1)Nc1c[nH]c2ccccc12 [Example 88, 1-(4-(3,5-difluorobenzyl)-3,4-dihydro-2H-benzo[b][1,4]thiazin-7-yl)-3-(1H-indol-3-yl)urea] | < 1
